The term Ki denotes the equilibrium dissociation constant of an inhibitor or competing ligand from its target. In general, melting point refers to the temperature of the solid-liquid transition.

One series has as its target T1, rat androgen receptor (Rattus norvegicus, UniProt P15207).
T1 construct: The cytosol fraction obtained in the step (1) was adjusted to a protein concentration of 1 mg/ml and used as a rat androgen receptor solution; from tissue; host or cells: rat ventral prostate gland cytosol fraction (male Wistar rats, castrated)
T1 sequence (P15207 1-902): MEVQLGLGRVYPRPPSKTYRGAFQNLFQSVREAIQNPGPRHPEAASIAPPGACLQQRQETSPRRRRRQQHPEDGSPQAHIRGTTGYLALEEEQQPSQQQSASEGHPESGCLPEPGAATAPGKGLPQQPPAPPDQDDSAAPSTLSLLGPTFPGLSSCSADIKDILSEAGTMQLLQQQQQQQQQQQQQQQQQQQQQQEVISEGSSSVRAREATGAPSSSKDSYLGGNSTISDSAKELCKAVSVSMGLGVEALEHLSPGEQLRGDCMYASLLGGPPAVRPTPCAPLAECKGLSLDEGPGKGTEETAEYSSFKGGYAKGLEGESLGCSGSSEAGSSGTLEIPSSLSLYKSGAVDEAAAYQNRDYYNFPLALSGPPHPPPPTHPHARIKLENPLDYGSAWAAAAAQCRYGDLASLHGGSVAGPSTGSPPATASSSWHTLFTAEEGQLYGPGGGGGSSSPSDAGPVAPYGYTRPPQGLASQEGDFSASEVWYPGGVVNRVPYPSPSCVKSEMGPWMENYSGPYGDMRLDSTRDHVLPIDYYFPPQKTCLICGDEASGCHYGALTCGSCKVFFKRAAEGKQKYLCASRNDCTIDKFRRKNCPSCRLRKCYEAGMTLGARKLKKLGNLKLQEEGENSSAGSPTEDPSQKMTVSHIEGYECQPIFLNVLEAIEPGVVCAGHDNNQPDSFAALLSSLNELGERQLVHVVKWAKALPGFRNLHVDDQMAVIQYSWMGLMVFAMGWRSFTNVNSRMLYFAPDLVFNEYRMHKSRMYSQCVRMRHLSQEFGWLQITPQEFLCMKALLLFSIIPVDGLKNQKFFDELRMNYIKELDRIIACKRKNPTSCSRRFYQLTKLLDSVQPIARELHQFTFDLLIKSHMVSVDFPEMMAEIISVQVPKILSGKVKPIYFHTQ
Nature of the series: biochemical. To be noted: 3H-mibolerone 1 nM, rat prostate cytosol; Ki calculated from IC50 by Cheng and Prusoff; read-out: Binding activity for rat androgen receptor (Ki = nM).
As for `C[C@@H]1CN(c2ccc(C#N)c(C(F)(F)F)c2)[C@@H](C)CN1C(=O)Nc1ccc(C#N)nc1` [Example 18-7, (2R,5S)-N-(6-Cyano-3-pyridyl)-4-(4-cyano-3-trifluoromethylphenyl)-2,5-dimethylpiperazine-1-carboxamide], the Ki was 6.66 nM. On to `C[C@@H]1CN(c2ccc(C#N)c(C(F)(F)F)c2)[C@@H](C)CN1C(=O)Nc1ccnc(Br)c1` [Example 6-1, (2R,5S)-N-(2-Bromo-4-pyridyl)-4-(4-cyano-3-trifluoromethylphenyl)-2,5-dimethylpiperazine-1-carboxamide], for which the Ki was 7.56 nM.

Take `C[C@@H]1CN(c2ccc(C#N)c(C(F)(F)F)c2)[C@@H](C)CN1C(=O)Nc1ccnc(N)n1` [Example 21, (2R,5S)-N-(2-Amino-pyrimidin-4-yl)-4-(4-cyano-3-trifluoromethylphenyl)-2,5-dimethylpiperazine-1-carboxamide]: the Ki is 1.81 nM. For the compound `C[C@@H]1CN(c2ccc(C#N)c(C(F)(F)F)c2)[C@@H](C)CN1C(=O)Nc1ccnc(F)c1` [Example 18-8, (2R,5S)-4-(4-Cyano-3-trifluoromethylphenyl)-N-(2-fluoro-4-pyridyl)-2,5-dimethylpiperazine-1-carboxamide], the Ki is 15.6 nM. For `CNC(=O)c1cc(NC(=O)N2C[C@H](C)N(c3ccc(C#N)c(C(F)(F)F)c3)C[C@H]2C)ccn1` [Example 13-1, (2R,5S)-4-(4-Cyano-3-trifluoromethylphenyl)-2,5-dimethyl-N-(2-methylcarbamoyl-4-pyridyl)piperazine-1-carboxamide], the Ki was 1.91 nM.

Consider `COc1ccc(NC(=O)N2C[C@H](C)N(c3ccc(C#N)c(C(F)(F)F)c3)C[C@H]2C)cn1` [Example 6-13, (2R,5S)-4-(4-Cyano-3-trifluoromethylphenyl)-N-(6-methoxy-3-pyridyl)-2,5-dimethylpiperazine-1-carboxamide], for which the Ki is 3.58 nM.

System in a further series: not given
Assay: not given
Conditions: not given
`C[C@@H]1CN(C(=O)Nc2ccnc(N)c2)[C@@H](C)CN1c1ccc(C#N)c(C(F)(F)F)c1` (racemic) gave a melting point of 208 to 211 °C. On to `C[C@@H]1CN(c2ccc(C#N)c(C(F)(F)F)c2)[C@@H](C)CN1C(=O)Nc1ccc(C#N)nc1` [Example 18-7, (2R,5S)-N-(6-Cyano-3-pyridyl)-4-(4-cyano-3-trifluoromethylphenyl)-2,5-dimethylpiperazine-1-carboxamide], for which the melting point fell in the range of 220 to 222 °C. The same measure, in the same setting: then `C[C@@H]1CN(c2ccc(C#N)c(C(F)(F)F)c2)[C@@H](C)CN1C(=O)N1CC[S+]([O-])CC1` (relative stereo), with 173 to 175 °C; and `C[C@@H]1CN(c2ccc(C#N)c(C(F)(F)F)c2)[C@@H](C)CN1C(=O)Nc1ccc(F)nc1`, with 163 to 165 °C. The same measure, in the same setting: then `CC1(C)CN(c2ccc(C#N)c(C(F)(F)F)c2)CN1C(=O)Nc1ccc(F)cc1`, with 199 to 200 °C. `CC(=O)Nc1nccc(NC(=O)N2C[C@@H](C)N(c3ccc(C#N)c(C(F)(F)F)c3)C[C@@H]2C)n1` (racemic) had a melting point of 191 to 193 °C.

In turn, `C[C@@H]1CN(C(=O)NC(C)(C)c2ccccc2)[C@@H](C)CN1c1ccc(C#N)c(C(F)(F)F)c1` (relative stereo) registered a melting point of 152.5 to 153.5 °C. Turning to `C[C@@H]1CN(C(=O)Nc2ccc(F)cc2)[C@@H](C)CN1c1ccc(C#N)c(C(F)(F)F)c1` (relative stereo), the melting point was in the range of 200 to 203 °C.

As for `COc1ccc(NC(=O)N2C[C@H](C)N(c3ccc(C#N)c(C(F)(F)F)c3)C[C@H]2C)cn1` [Example 6-13, (2R,5S)-4-(4-Cyano-3-trifluoromethylphenyl)-N-(6-methoxy-3-pyridyl)-2,5-dimethylpiperazine-1-carboxamide], the melting point fell in the range of 184 to 185 °C.

These data come from patent publication US6673799B1, “Cyanophenyl derivative” (priority 1998, dated 2004).
